Results on three compounds are retold here after patent US10609926B2, “Synergistic herbicidal composition” (JIANGSU ROTAM CHEMISTRY CO., LTD, priority 2016, dated 2020).

Structures are written as SMILES.

This experiment has as its system gramineous weeds, broadleaf weeds and sedge weeds. The experiment is described as follows: Post-emergence weed control efficacy test (potted plants, stem and leaf treatment; Colby evaluation). Type of experiment: in vivo. From the text:
The desired efficacy of the combination of three active compounds can be calculated through “Colby formula” as follows (S. R. Colby, “Calculating Synergistic and Antagonistic Responses of Herbicide Combinations, Weeds 1967, 15, 20-22): if
E0 is the anticipated activity of active compounds A, B and C when used in an amount of m, n, h g/ha or concentrate of m, n, h ppm, E0=A×B×C/(100^(N-1))
If the observed actual activity E is greater than the anticipated activity (E0), then the composition has synergistic effect.
If the observed actual efficiency of weed control (E) through the biology test is greater than the anticipated value (E0) as calculated via Colby's equation, then it represents that the efficacy of herbicidal composition is greater than the sum of efficacy of each component, which means the composition has synergistic effect.
Use stem and leaf treatment for potted grown plant(NY/T 1155.4-2006): fill a plastic pot (6 cm height, 9 cm diameter) with a quantity of soil and sow 15 to 20 seeds of monocotyledonous weeds and dicotyledonous weeds in the plastic pot, cover it with 0.5 to 1 cm thick of fine soil and then put it in greenhouse for cultivation. When weeds grow to the 2 to 4 leave stage, conduct the stem and leaf spray treatment with 1 mL herbicidal solution on each pot and repeat four times for each treatment and leave some pots untreated as control group. Keep the treated pots in a greenhouse for cultivation and observe the growing status of target weeds periodically. Conduct the visual test on the target weeds regarding the damage symptoms and growth inhibition effect after 21 days. Weigh up the fresh weight above the ground or plant fresh weight and evaluate the toxicity of the herbicidal formulation on target weeds based on the fresh weight inhibition rate of the target.
Prepare the following formulations according to specific weight percentages: 1. Pyroxasulfone; 2. Topramezone; 3 Atrazine; 4. Pyroxasulfone+Topramezone; 5. Pyroxasulfone+Atrazine; 6. Topramezone+Atrazine; 7. Pyroxasulfone+Topramezone+Atrazine. After that, dilute above formulations with water to obtain diluted formulations.
Conduct visual assessment the damage symptom and growth inhibition status of target weeds after 21 days. Weigh up the fresh weight above the ground and calculate the inhibition rate of fresh weight (%).
Anticipated effects of the special combined three active components can be calculated through so called “Colby formula”. If the actual efficiency of weed control observed during the biology test exceeds the anticipated value […] calculated by Colby's formula, then it represents that the efficacy of herbicidal composition is greater than the sum of efficacy of each component, which means the composition has synergistic effect.
The synergistic herbicidal composition of present invention has conducted test on the following important harmful plants (gramineous weeds, broadleaf weeds, sedge weeds) with wide herbicidal spectrum: Echinochloa oryzicola, Digitaria spp., Stellaria media, Amaranthus retroflexus, Fallopia (ex Polygonum) Convolvulus, Abuthilon theophrasti, Sagittariatrifolia, Oriental Waterplantain Rhizome, Herb of Pygmy Arrowhead, Monochoria korsakowii, Lindernia procumbens, Solanum nigrum L., Scirpus juncoides Roxb, Cyperus difformis L., Chenopodium alum L., Avena fatua L. and Galium aparine L. var. tenerum Gren. et (Godr.) Rebb.

For `CCNc1nc(Cl)nc(NC(C)C)n1` [Atrazine, 2-chloro-4-ethylamino-6-isopropylamino-1,3,5-triazine], the Actual survival rate (application rate 1 g/ha) is given as 100%, the Actual survival rate (application rate 50 g/ha) is 100% and the Actual survival rate (application rate 100 g/ha) amounted to 67%.

Turning to `Cn1nc(C(F)(F)F)c(CS(=O)(=O)C2=NOC(C)(C)C2)c1OC(F)F` [Pyroxasulfone, 3-[5-(difluoromethoxy)-1-methyl-3-(trifluoromethyl)pyrazol-4-ylmethylsulfonyl]-4,5-dihydro-5,5-dimthyl-1,2-oxazole], the Actual survival rate (application rate 1 g/ha) amounted to 89%, the Actual survival rate (application rate 5 g/ha) is 78% and the Actual survival rate (application rate 10 g/ha) was determined as 60%.

Consider `Cc1c(C(=O)c2cnn(C)c2O)ccc(S(C)(=O)=O)c1C1=NOCC1` [Topramezone, [3-(4,5-dihydro-3-isoxazolyl)-2-methyl-4-(methylsulfonyl)phenyl](5-hydroxy-1-methyl-1H-pyrazol-4-yl)methanone], for which the Actual survival rate came out at 87.8% (application rate 1 g/ha), 24.5% (application rate 25 g/ha) and 12.8% (application rate 50 g/ha).
